The values that follow come from ChEMBL document CHEMBL3351680, “Structure-based design, synthesis and biological evaluation of novel β-secretase inhibitors containing a pyrazole or thiazole moiety as the P3 ligand” (Bioorg Med Chem Lett, 2015).

pKi: −log10 of the molar value.

Sequence of Beta-secretase 1 (P56817 whole entry): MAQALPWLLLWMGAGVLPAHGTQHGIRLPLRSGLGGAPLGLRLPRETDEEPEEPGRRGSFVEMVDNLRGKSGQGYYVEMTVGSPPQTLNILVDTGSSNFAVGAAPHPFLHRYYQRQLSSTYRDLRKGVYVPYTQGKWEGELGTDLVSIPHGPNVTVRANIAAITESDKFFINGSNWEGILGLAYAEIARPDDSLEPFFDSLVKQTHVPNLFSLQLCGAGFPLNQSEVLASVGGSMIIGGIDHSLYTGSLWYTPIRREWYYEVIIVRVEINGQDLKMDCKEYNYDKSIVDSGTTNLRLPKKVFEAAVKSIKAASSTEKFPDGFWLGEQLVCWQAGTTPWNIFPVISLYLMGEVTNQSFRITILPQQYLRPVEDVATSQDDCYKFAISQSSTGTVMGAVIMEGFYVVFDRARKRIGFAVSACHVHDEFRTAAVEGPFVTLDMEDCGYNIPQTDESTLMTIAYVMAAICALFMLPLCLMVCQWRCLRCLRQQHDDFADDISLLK

The target in the first test is Cathepsin D (Homo sapiens, UniProt P07339). Briefly: Inhibition of Cathepsin D (unknown origin).
Sequence of Cathepsin D (P07339 65-162 limits assumed): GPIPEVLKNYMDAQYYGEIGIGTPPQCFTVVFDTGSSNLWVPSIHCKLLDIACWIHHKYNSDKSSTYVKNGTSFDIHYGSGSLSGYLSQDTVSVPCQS
Sequence of Cathepsin D (P07339 169-412 limits assumed): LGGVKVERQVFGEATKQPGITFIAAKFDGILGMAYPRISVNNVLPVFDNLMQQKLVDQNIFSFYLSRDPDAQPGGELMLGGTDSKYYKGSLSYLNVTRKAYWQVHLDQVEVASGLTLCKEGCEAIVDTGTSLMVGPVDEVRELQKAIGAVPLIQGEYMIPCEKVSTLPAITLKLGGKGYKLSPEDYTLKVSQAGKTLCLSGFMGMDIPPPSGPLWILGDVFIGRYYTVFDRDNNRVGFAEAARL
`Cc1csc(C[C@H](C)C(=O)N[C@@H](CNC(=O)OC(C)(C)C)C(=O)N[C@@H](CC(C)C)[C@@H](O)C[C@@H](C)C(=O)N[C@H](C(=O)NCC(C)C)C(C)C)n1`: the negative logarithm of the Ki (pKi) is 8.90.

The target of a further test is T1, Beta-secretase 2 (Homo sapiens, UniProt Q9Y5Z0).
T1 sequence (Q9Y5Z0 whole entry): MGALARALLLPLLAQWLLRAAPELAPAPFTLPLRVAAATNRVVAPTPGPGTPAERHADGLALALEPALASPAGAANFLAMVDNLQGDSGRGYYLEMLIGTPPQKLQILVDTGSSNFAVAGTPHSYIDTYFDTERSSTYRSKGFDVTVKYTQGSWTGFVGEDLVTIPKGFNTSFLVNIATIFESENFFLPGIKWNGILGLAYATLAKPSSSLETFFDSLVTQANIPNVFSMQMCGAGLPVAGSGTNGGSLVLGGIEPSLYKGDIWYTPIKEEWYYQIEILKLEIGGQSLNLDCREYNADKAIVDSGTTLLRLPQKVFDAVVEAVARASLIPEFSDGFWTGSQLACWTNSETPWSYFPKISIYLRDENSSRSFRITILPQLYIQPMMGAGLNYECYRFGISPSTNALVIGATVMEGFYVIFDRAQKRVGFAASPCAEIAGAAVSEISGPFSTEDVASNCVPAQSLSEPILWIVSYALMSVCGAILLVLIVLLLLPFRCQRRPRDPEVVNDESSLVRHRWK
Nature of the test: Inhibition of memapsin 1 (unknown origin).
As to `Cc1csc(C[C@H](C)C(=O)N[C@@H](CNC(=O)OC(C)(C)C)C(=O)N[C@@H](CC(C)C)[C@@H](O)C[C@@H](C)C(=O)N[C@H](C(=O)NCC(C)C)C(C)C)n1`, the pKi is 7.15.

A further test has as its target Beta-secretase 1 (Homo sapiens, UniProt P56817). Briefly: Inhibition of recombinant BACE1 (unknown origin).
With `Cc1nc(C[C@H](C)C(=O)N[C@@H](CNC(=O)OC(C)(C)C)C(=O)N[C@@H](CC(C)C)[C@@H](O)C[C@@H](C)C(=O)N[C@H](C(=O)NCC(C)C)C(C)C)cs1`, the pKi is 7.50.
The same measure, in the same setting: under `Cc1cc(C)n(C[C@@H](C(=O)N[C@@H](CNC(=O)OC(C)(C)C)C(=O)N[C@@H](CC(C)C)[C@@H](O)C[C@@H](C)C(=O)N[C@H](C(=O)NCC(C)C)C(C)C)C(C)C)n1` stands 6.33; under `Cc1cc(C)n(C[C@H](CC(C)C)C(=O)N[C@@H](CNC(=O)OC(C)(C)C)C(=O)N[C@@H](CC(C)C)[C@@H](O)C[C@@H](C)C(=O)N[C@H](C(=O)NCC(C)C)C(C)C)n1`, 6.83.
For the compound `CC[C@@H](Cn1nc(C)cc1C)C(=O)N[C@@H](CNC(=O)OC(C)(C)C)C(=O)N[C@@H](CC(C)C)[C@@H](O)C[C@@H](C)C(=O)N[C@H](C(=O)NCC(C)C)C(C)C`, the pKi was 7.20.
The same measure, in the same setting: for `CSC[C@H](NC(=O)[C@@H](C)Cn1nc(C)cc1C)C(=O)N[C@@H](CC(C)C)[C@@H](O)C[C@@H](C)C(=O)N[C@H](C(=O)NCC(C)C)C(C)C` the value was 7.19.
Same read-out and setting: under `Cc1csc(C[C@H](C)C(=O)N[C@@H](CNC(=O)OC(C)(C)C)C(=O)N[C@@H](CC(C)C)[C@@H](O)C[C@@H](C)C(=O)N[C@H](C(=O)NCC(C)C)C(C)C)n1` stands 9.60.
Regarding `Cc1cc(C)n(C[C@H](C)C(=O)N[C@@H](CS(C)(=O)=O)C(=O)N[C@@H](CC(C)C)[C@@H](O)C[C@@H](C)C(=O)N[C@H](C(=O)NCC(C)C)C(C)C)n1`, the pKi was 6.72.
On the same count and under the same terms, under `CC[C@@H](Cc1csc(C)n1)C(=O)N[C@@H](CNC(=O)OC(C)(C)C)C(=O)N[C@@H](CC(C)C)[C@@H](O)C[C@@H](C)C(=O)N[C@H](C(=O)NCC(C)C)C(C)C` stands 7.77; under `CC[C@@H](Cc1nc(C)cs1)C(=O)N[C@@H](CNC(=O)OC(C)(C)C)C(=O)N[C@@H](CC(C)C)[C@@H](O)C[C@@H](C)C(=O)N[C@H](C(=O)NCC(C)C)C(C)C`, 7.97.
`Cc1ccn(C[C@H](C)C(=O)N[C@@H](CNC(=O)OC(C)(C)C)C(=O)N[C@@H](CC(C)C)[C@@H](O)C[C@@H](C)C(=O)N[C@H](C(=O)NCC(C)C)C(C)C)n1`: the pKi is 6.70.
The same measure, in the same setting: for `Cc1csc(C[C@@H](C(=O)N[C@@H](CNC(=O)OC(C)(C)C)C(=O)N[C@@H](CC(C)C)[C@@H](O)C[C@@H](C)C(=O)N[C@H](C(=O)NCC(C)C)C(C)C)C(C)C)n1` the value was 7.54.
